Assay results published in ChEMBL document CHEMBL3994622, “Design and synthesis of new RAF kinase-inhibiting antiproliferative quinoline derivatives. Part 2: Diarylurea derivatives” (Eur J Med Chem, 2017).

Experiments:
Assay type in all cases: functional
[1] = tested on: SK-MEL-28; test: Growth inhibition of human SK-MEL-28 cells incubated for 48 hrs by sulforhodamine B assay; conditions: SK-MEL-28, 48 h
[2] = tested on: UACC-257; test: Growth inhibition of human UACC257 cells incubated for 48 hrs by sulforhodamine B assay; conditions: UACC-257, 48 h
[3] = tested on: MOLT-4; test: Growth inhibition of human MOLT4 cells incubated for 48 hrs by sulforhodamine B assay; conditions: MOLT-4, 48 h
[4] = tested on: NCI-H460; test: Growth inhibition of human NCI-H460 cells assessed as cell growth at 10 uM incubated for 48 hrs by sulforhodamine B assay relative to control; conditions: NCI-H460, 48 h, read-out: Activity
[5] = tested on: SR; test: Growth inhibition of human SR cells assessed as cell growth at 10 uM incubated for 48 hrs by sulforhodamine B assay relative to control; conditions: read-out: Activity
[6] = tested on: NCI-H226; test: Growth inhibition of human NCI-H226 cells assessed as cell growth at 10 uM incubated for 48 hrs by sulforhodamine B assay relative to control; conditions: NCI-H226, 48 h, read-out: Activity
[7] = tested on: OVCAR-8; test: Growth inhibition of human OVCAR8 cells incubated for 48 hrs by sulforhodamine B assay; conditions: OVCAR-8, 48 h
[8] = tested on: A549; test: Growth inhibition of human A549/ATCC cells assessed as cell growth at 10 uM incubated for 48 hrs by sulforhodamine B assay relative to control; conditions: A549, 48 h, read-out: Activity
[9] = tested on: KM12; test: Growth inhibition of human KM12 cells assessed as cell growth at 10 uM incubated for 48 hrs by sulforhodamine B assay relative to control; conditions: KM12, 48 h, read-out: Activity
[10] = tested on: SF-268; test: Growth inhibition of human SF268 cells assessed as cell growth at 10 uM incubated for 48 hrs by sulforhodamine B assay relative to control; conditions: SF-268, 48 h, read-out: Activity
[11] = tested on: OVCAR-5; test: Growth inhibition of human OVCAR5 cells assessed as cell growth at 10 uM incubated for 48 hrs by sulforhodamine B assay relative to control; conditions: OVCAR-5, 48 h, read-out: Activity
[12] = tested on: HL-60(TB); test: Growth inhibition of human HL-60(TB) cells assessed as cell growth at 10 uM incubated for 48 hrs by sulforhodamine B assay relative to control; conditions: HL-60, 48 h, read-out: Activity
[13] = tested on: SK-OV-3; test: Growth inhibition of human SKOV3 cells assessed as cell growth at 10 uM incubated for 48 hrs by sulforhodamine B assay relative to control; conditions: SK-OV-3, 48 h, read-out: Activity
[14] = tested on: MDA-MB-468; test: Growth inhibition of human MDA-MB-468 cells assessed as cell growth at 10 uM incubated for 48 hrs by sulforhodamine B assay relative to control; conditions: MDA-MB-468, 48 h, read-out: Activity
[15] = tested on: CCRF-CEM; test: Growth inhibition of human CCRF-CEM cells assessed as cell growth at 10 uM incubated for 48 hrs by sulforhodamine B assay relative to control; conditions: read-out: Activity
[16] = tested on: MOLT-4; test: Growth inhibition of human MOLT4 cells assessed as cell growth at 10 uM incubated for 48 hrs by sulforhodamine B assay relative to control; conditions: MOLT-4, 48 h, read-out: Activity
[17] = tested on: NCI-H23; test: Growth inhibition of human NCI-H23 cells assessed as cell growth at 10 uM incubated for 48 hrs by sulforhodamine B assay relative to control; conditions: NCI-H23, 48 h, read-out: Activity
[18] = tested on: IGROV-1; test: Growth inhibition of human IGROV1 cells incubated for 48 hrs by sulforhodamine B assay; conditions: IGROV-1, 48 h
[19] = tested on: HCT-116; test: Growth inhibition of human HCT116 cells assessed as cell growth at 10 uM incubated for 48 hrs by sulforhodamine B assay relative to control; conditions: HCT-116, 48 h, read-out: Activity
[20] = tested on: COLO 205; test: Growth inhibition of human COLO205 cells incubated for 48 hrs by sulforhodamine B assay; conditions: COLO 205, 48 h
[21] = tested on: NCI-H522; test: Growth inhibition of human NCI-H522 cells assessed as cell growth at 10 uM incubated for 48 hrs by sulforhodamine B assay relative to control; conditions: NCI-H522, 48 h, read-out: Activity
[22] = tested on: MDA-MB-231; test: Growth inhibition of human MDA-MB-231 cells assessed as cell growth at 10 uM incubated for 48 hrs by sulforhodamine B assay relative to control; conditions: MDA-MB-231, 48 h, read-out: Activity
[23] = tested on: CAKI-1; test: Growth inhibition of human Caki1 cells assessed as cell growth at 10 uM incubated for 48 hrs by sulforhodamine B assay relative to control; conditions: CAKI-1, 48 h, read-out: Activity
[24] = tested on: SF-268; test: Growth inhibition of human SF268 cells incubated for 48 hrs by sulforhodamine B assay; conditions: SF-268, 48 h
[25] = tested on: A498; test: Growth inhibition of human A498 cells assessed as cell growth at 10 uM incubated for 48 hrs by sulforhodamine B assay relative to control; conditions: A498, 48 h, read-out: Activity
[26] = tested on: SNB-19; test: Growth inhibition of human SNB19 cells assessed as cell growth at 10 uM incubated for 48 hrs by sulforhodamine B assay relative to control; conditions: SNB-19, 48 h, read-out: Activity
[27] = tested on: IGROV-1; test: Growth inhibition of human IGROV1 cells assessed as cell growth at 10 uM incubated for 48 hrs by sulforhodamine B assay relative to control; conditions: IGROV-1, 48 h, read-out: Activity
[28] = tested on: Hs-578T; test: Growth inhibition of human Hs 578T cells assessed as cell growth at 10 uM incubated for 48 hrs by sulforhodamine B assay relative to control; conditions: read-out: Activity
[29] = tested on: UACC-62; test: Growth inhibition of human UACC62 cells assessed as cell growth at 10 uM incubated for 48 hrs by sulforhodamine B assay relative to control; conditions: UACC-62, 48 h, read-out: Activity
[30] = tested on: M14; test: Growth inhibition of human M14 cells assessed as cell growth at 10 uM incubated for 48 hrs by sulforhodamine B assay relative to control; conditions: M14, 48 h, read-out: Activity
[31] = tested on: ACHN; test: Growth inhibition of human ACHN cells assessed as cell growth at 10 uM incubated for 48 hrs by sulforhodamine B assay relative to control; conditions: read-out: Activity
[32] = tested on: NCI-H322M; test: Growth inhibition of human NCI-H322M cells incubated for 48 hrs by sulforhodamine B assay
[33] = tested on: SN12C; test: Growth inhibition of human SN12C cells assessed as cell growth at 10 uM incubated for 48 hrs by sulforhodamine B assay relative to control; conditions: read-out: Activity
[34] = read-out: LC50 (the source's name)

Work on COc1cc2cc(Oc3ccc(NC(=O)Nc4cccc(C(F)(F)F)c4)cc3)c(C)nc2cc1OC yielded a GI50 [1] of 1.97 µM, a TGI [1] of 8.37 µM and a CC50 [1, 34] of 28.2 µM. It also gave a GI50 [2] of 1.09 µM, a TGI [2] of 3.66 µM and a CC50 [2, 34] of 19.9 µM. The GI50 [3] was 1.55 µM, the LC50 [3] was over 50 µM and the TGI [3] was 6.87 µM. For the same compound, the growth at 10 µM [4] was 2.68%, the growth at 10 µM [5] was -6.62% and the growth at 10 µM [6] was -23.5%. It also gave a GI50 [7] of 1.71 µM, a TGI [7] of 6.28 µM and a CC50 [7, 34] of 19.9 µM. For the same compound, the growth at 10 µM [8] was 3.09%, the growth at 10 µM [9] was -10.2% and the growth at 10 µM [10] was 29.2%. For the same compound, the growth at 10 µM [11] was 27.8%, the growth at 10 µM [12] was -24.8% and the growth at 10 µM [13] was 3.35%. For the same compound, the growth at 10 µM [14] was -32.5%, the growth at 10 µM [15] was 6.41% and the growth at 10 µM [16] was 0.81%. For the same compound, the growth at 10 µM [17] was 6.78%, the GI50 [18] was 2.95 µM and the TGI [18] was 24.9 µM. It also gave a CC50 [18, 34] of over 50 µM, a growth at 10 µM [19] of 6.71% and a GI50 [20] of 1.12 µM. For the same compound, the TGI [20] was 2.4 µM, the CC50 [20, 34] was 5.7 µM and the growth at 10 µM [21] was -17.4%. For the same compound, the growth at 10 µM [22] was -8.32%, the growth at 10 µM [23] was 9.13% and the GI50 [24] was 2.57 µM. For the same compound, the LC50 (50% lethal concentration) [24] was over 50 µM, the TGI [24] was 15.5 µM and the growth at 10 µM [25] was 21.7%. The growth at 10 µM [26] was 31.4%, the growth at 10 µM [27] was 8.77% and the growth at 10 µM [28] was 22.6%. The growth at 10 µM [29] was 14.5%, the growth at 10 µM [30] was 22.6% and the growth at 10 µM [31] was 11.2%. For the same compound, the GI50 [32] was 2.84 µM, the TGI [32] was 16.6 µM and the CC50 [32, 34] was over 50 µM. For the same compound, the growth at 10 µM [33] was 17.2%.
